The source of these data is PMC6073568, “Efficient Lead Finding, Activity Enhancement and Preliminary Selectivity Control of Nuclear Receptor Ligands Bearing a Phenanthridinone Skeleton” (International Journal of Molecular Sciences, 2018).

Bounds are passed on as bounds.

In one test the target is T1, LXRα (Homo sapiens, UniProt Q13133).
T1 construct: CMX-GAL4N-hLXRα-LBD; expressed in transfected cells; host or cells: HEK293
T1 sequence (Q13133 209-447 limits assumed): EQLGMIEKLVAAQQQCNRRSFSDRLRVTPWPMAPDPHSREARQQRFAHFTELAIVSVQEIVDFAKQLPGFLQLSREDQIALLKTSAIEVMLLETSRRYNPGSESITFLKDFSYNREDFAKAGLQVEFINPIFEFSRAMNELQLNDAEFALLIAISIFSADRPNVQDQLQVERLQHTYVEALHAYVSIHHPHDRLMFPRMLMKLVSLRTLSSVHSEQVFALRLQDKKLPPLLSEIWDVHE
As to conditions: read-out: LXRα antagonistic activity (IC50); cited from earlier work.

A further test deals with T2, RORγ (Homo sapiens, UniProt P51449).
T2 construct: expressed in transfected cells; host or cells: HEK293
T2 sequence (P51449 1-518): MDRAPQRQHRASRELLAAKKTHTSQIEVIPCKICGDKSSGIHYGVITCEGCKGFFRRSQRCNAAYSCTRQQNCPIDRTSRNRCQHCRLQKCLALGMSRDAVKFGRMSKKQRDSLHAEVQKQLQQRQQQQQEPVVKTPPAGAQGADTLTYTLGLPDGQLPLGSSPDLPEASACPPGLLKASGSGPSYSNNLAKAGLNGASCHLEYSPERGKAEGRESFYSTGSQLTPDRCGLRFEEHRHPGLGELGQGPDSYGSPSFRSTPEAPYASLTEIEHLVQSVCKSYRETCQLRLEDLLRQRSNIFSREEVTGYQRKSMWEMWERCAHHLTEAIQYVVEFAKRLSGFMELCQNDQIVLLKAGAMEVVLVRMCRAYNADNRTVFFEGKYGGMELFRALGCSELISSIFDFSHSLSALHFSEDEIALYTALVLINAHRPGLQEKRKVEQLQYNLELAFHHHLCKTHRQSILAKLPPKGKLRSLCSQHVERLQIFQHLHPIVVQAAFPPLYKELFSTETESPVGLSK
Kind of test: RORγ inverse agonist reporter gene assay in HEK293. Type of test: cell-based. As to conditions: new compound 43, read-out: RORγ inverse agonistic activity (IC50). A general note: In a reporter assay the amount or activity of a reporter protein is the signal.

The target of a further test is T3, RORα (Homo sapiens, UniProt P35398).
T3 construct: expressed in transfected cells; host or cells: HEK293
T3 sequence (P35398 1-523): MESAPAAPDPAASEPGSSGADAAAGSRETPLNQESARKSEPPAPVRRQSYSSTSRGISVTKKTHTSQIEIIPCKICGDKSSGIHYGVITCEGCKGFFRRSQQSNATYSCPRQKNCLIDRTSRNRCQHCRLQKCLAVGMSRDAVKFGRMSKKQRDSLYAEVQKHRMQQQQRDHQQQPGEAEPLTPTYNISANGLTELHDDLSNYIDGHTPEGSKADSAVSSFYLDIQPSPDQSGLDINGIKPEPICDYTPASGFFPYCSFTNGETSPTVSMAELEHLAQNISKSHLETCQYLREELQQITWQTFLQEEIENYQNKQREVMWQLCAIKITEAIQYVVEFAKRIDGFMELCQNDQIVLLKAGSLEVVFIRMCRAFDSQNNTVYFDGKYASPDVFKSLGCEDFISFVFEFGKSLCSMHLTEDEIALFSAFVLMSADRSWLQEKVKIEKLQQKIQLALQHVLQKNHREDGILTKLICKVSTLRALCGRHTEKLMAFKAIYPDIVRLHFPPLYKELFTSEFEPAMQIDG
Kind of test: RORα inverse agonist reporter gene assay in HEK293. Format: cell-based. Conditions: new compound 43, read-out: RORα inverse agonistic activity (IC50).

The target in the next test is T4, RORβ (Homo sapiens, UniProt Q92753).
T4 construct: expressed in transfected cells; host or cells: HEK293
T4 sequence (Q92753 1-459 isoform Q92753-1): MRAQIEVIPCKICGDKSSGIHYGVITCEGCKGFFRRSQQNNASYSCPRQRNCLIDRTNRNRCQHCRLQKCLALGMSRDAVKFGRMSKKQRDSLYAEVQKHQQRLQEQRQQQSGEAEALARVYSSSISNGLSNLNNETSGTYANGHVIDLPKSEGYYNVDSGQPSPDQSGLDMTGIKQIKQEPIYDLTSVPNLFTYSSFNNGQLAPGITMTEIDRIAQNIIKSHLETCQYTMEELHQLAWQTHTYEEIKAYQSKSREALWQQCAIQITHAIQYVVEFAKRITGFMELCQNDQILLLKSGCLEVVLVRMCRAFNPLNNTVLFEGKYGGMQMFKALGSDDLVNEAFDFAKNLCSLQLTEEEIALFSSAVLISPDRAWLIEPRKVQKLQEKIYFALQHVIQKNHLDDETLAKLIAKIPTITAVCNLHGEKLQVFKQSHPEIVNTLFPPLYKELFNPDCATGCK
Kind of test: RORβ inverse agonist reporter gene assay in HEK293. Format: cell-based. As to conditions: new compound 43, read-out: RORβ inverse agonistic activity (IC50).

Take `O=c1[nH]c2ccc(C(O)(C(F)(F)F)C(F)(F)F)cc2c2ccccc12` [Compound 1]: at LXRα, the IC50 (usually the concentration that inhibits the measured activity by half) was 5 µM.
On to `O=c1[nH]c2c(Cl)cc(C(O)(C(F)(F)F)C(F)(F)F)cc2c2ccccc12` [Compound 43, 4-Chloro-2-(1,1,1,3,3,3-hexafluoro-2-hydroxypropan-2-yl)phenanthridin-6(5H)-one], for which the IC50 on RORγ, at RORα and on RORβ was above 20 µM each time.
